Ka data for one compound are collected here from PMC3662789, “Structural Investigation of a Novel N-Acetyl Glucosamine Binding Chi-Lectin Which Reveals Evolutionary Relationship with Class III Chitinases” (PLoS ONE, 2013).

In the experiment the target is T1, TCLL (tamarind chitinase like lectin) (Tamarindus indica, UniProt S4S1V9).
T1 construct: monomer, glycosylated at Asn146; 33440 Da (deglycosylated 31811 Da); 266 residues modelled (7-272)
Nature of the experiment: isothermal titration calorimetry (single-site model). The experiment is classed as binding. To be noted: 20 mM Tris, pH 7.4, 25°C; 0.3 mM protein, 8 mM sugar in syringe; crystal complex at 1.6 Å with two surface sites S1 and S2.

T1 sequence (S4S1V9 entry or part of it): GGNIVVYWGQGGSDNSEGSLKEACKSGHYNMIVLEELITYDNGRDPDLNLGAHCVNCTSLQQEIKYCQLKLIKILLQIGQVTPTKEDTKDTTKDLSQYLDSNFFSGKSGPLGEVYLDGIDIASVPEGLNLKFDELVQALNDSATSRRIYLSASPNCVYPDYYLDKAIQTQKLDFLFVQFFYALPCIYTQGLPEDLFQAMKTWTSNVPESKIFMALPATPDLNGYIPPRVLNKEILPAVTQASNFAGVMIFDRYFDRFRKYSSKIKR

In the case of `CC(=O)N[C@H]1C(O)O[C@H](CO)[C@@H](O)[C@@H]1O` (stereo partly shown) [N-acetyl glucosamine], the Ka is 2.9×10^3.
